Source: patent US10710951B2, “Pharmaceutical composition containing verbenone derivative for treating or preventing neurodegenerative disease” (KOREA UNIVERSITY RESEARCH AND BUSINESS FOUNDATION, priority 2012, dated 2020)

Assays:
cortical neurons = test: Intracellular levels (DCF fluorescence) of reactive oxygen species after OGD/reoxygenation; format: cell-based, SD rats; conditions: FIG. 3
Procedure: In order to examine the direct radical scavenging activities of the samples, at 1 hour after reoxygenation, the cells were stained with the fluorescent probe H2DCF-DA (2,7-dihydroichlorofluorescein diacetate) that is widely used to measure intracellular oxidative stress. After 2 hours, the cells were washed in EBSS buffer (containing 25 mM glucose, 1.8 mM CaCal2, 1.2 mM MgSO4 and 2.5 mM probenecid (pH7.4)), and the fluorescence of DCF was measured with a fluorescence microplate reader (SpectraMax GeminiEM; Ex=485 nm, Em=530 nm) or a fluorescence microscope (DM IL HC Fluo, Leica, Wetzlar, Germany) equipped with a digital camera (DFC420C, Leica, Wetzlar Germany). The fluorescence intensity was compensated with autofluorescence (i.e., the fluorescence of cells not loaded with H2DCF-DA).

[1] = tested on: focal cerebral ischemia (MCAO) rats; test: Focal cerebral ischemia model (MCAO); format: in vivo, SD rats; conditions: transient ischemia rat; 50 mg/kg intraperitoneal, twice (2 hours and 7 hours after brain infarction); FIG. 4
Procedure: Rats were anesthetized with 3.0% isoflurane in N2O and O2 (70:30 v/v) mixture via facemask and were maintained in 2% isoflurane. Throughout the experimental period, the body temperature was controlled and kept to 37° C.±0.3° C. using a rectal thermometer and a heating pad until the animals were sufficiently recovered from anesthesia after surgery. Focal cerebral ischemia was achieved by right-sided endovascular MCAO. Briefly, a 3-0 heat-blunted monofilament nylon suture (Ethicon Johnson & Johnson, Brussels, Belgium) were inserted into the lumen of the right external carotid artery stump and advanced 17.5 mm into the internal carotid artery to occlude the ostium of the MCA. The suture was removed after 1.5 hours to allow animals to recover. Operated controls were subjected to the same surgical procedures, except for MCAO. Physiological values were measured 15 minutes before MCAO and at 15 minutes after reperfusion, and mean blood pressure was monitored for 5 minutes using a blood pressure analyzer (MicroMed, Lousville, Ky.), and glucose were monitored using an analyzer (Ciba Corning Diagnostics Corp., Medfield, Mass.). […]
Rats were anesthetized with 3.5% chloral hydrate (5 ml/kg, intraperitoneal injection) and decapitated. […] The cross-sectional area of infarction between the bregma levels of +4 mm (anterior) and −6 mm (posterior) were determined with analysis software (OPTIMAS5.1 image analysis program, BioScanInc. Edmonds, Wash.). Brain infarct size was measured manually by outlining the margins of infarct areas. The total infarction volume (mm^3) was calculated according to the following equation 5 as disclosed in a document (J Neurosci Methods (1998) 84:9-16; J Cereb Blood Flow Metab (1990) 10:290-293), and compensated for brain edema. Cerebral edema was determined by the percent increase of the ipsilateral/contralateral hemisphere area as shown in the following equation 6. […]

In the case of `COc1cc(C=CC2=CC(=O)[C@H]3C[C@@H]2C3(C)C)cc(O)c1O` [Compound 3f, (1S,5R)-4-(3,4-dihydroxy-5-methoxystyryl)-6,6-dimethylbicyclo[3.1.1]hept-3-en-2-one], the “OGD-induced intracellular oxidative stress (DCF fluorescence)” value (cortical neurons) is reported as “reduced OGD-induced intracellular oxidative stress”, the cerebral edema [1] is reported as “significantly reduced” and the ischemic injury [1] is reported as “significantly reduced”. The neurological deficit [1] was “significantly reduced”.
